Results published in patent publication US20220133702A1, “CYSTIC FIBROSIS TRANSMEMBRANE CONDUCTANCE REGULATOR MODULATORS FOR TREATING AUTOSOMAL DOMINANT POLYCYSTIC KIDNEY DISEASE” (The Johns Hopkins University, priority 2020, published 2022).
Entries after “also recorded” stand apart in the source; their conditions may differ.

What was measured:
[1] = tested on: Hsp27, Hsp70, and Hsp90 in PN cells; experiment: Disappearance of Hsps after translation block with cycloheximide; format: cell-based, mouse; settings: VX-809 10 μM with cycloheximide 25 μM
Protocol: FIG. 9A, FIG. 9B, FIG. 9C, FIG. 9D, FIG. 9E, FIG. 9F, FIG. 9G, and FIG. 9H show Hsp27, HSp70, and Hsp90 expression in PN cells treated with VX-809 and/or cycloheximide. (A) Pkd1 null (PN) cells were treated with VX-809 (10 μM) and/or with cycloheximide (25 μM) for indicated time points before being harvested for the assay. (FIG. 9A) Western blot showing expression of Hsp27, Hsp70, and Hsp90 in VX-809-(16 h), cycloheximide-treated, or control PN cells. ((FIG. 9B. (FIG. 9C, and (FIG. 9D) Columns represent averages±standard errors of Hsp27, Hsp70, and Hsp90 expression in cells treated with VX-809 and/or cycloheximide. ((FIG. 9E) Western blot showing expression of Hsp27, Hsp70, and Hsp90 in PN cells treated with VX-809+cycloheximide or control PN cells. ((FIG. 9F, FIG. 9G, and FIG. 9H) Columns represent averages±standard errors of Hsp27, Hsp70, and Hsp90 expression in cells treated only with cycloheximide or in control PN cells. Data were analyzed by non-parametric t-test. The experiments were repeated 3-5 times. *P<0.05, **P<0.01;
To gain more insight into the mechanism whereby VX-809 alters Hsp protein levels, translation was inhibited by using cycloheximide and the disappearance of the three Hsps was monitored. […] Hsp90 was reduced by approximately 25%, and Hsp27 was unchanged.

[2] = tested on: caspase 3 activity in PN cells; experiment: EnzChek Caspase-3 assay (apoptosis); format: cell-based, mouse; settings: 16 h
Protocol: Apoptosis was measured using the EnzChek Caspase-3 Assay Kit (Invitrogen #E13184). Cells were treated either with VX-809 or with DMSO at indicated concentrations for 16 h or left untreated (control). Both treated and control cells were then harvested, lysed, and assayed as described in the manufacturer's protocol. Reactions were carried out at room temperature, and fluorescence was measured in a fluorescence microplate reader (SpectraMax M3), with excitation at 496 nm and emission detection at 520 nm. Background fluorescence, determined for a no-enzyme control, has been subtracted from each value. Ac-DEVD-CHO was used as an inhibitor control (Inh-cntr1) to confirm the correlation between signal detection and caspase3-like protease activity. Data were analyzed using one-way and ANOVA multiple comparisons. n=4-5. ****P<0.0001;
Apoptosis is associated with the absence of PC1 in ADPKD. To assess whether apoptosis is directly altered by VX-809, caspase 3 activity was monitored in PN cells.

GRP78, Ero1, and GADD153 = experiment: Western blot of ER stress markers in kidney tissue lysates; format: in vivo, mouse; settings: 30 mg/kg BW, cyst-induced mice
Protocol: FIG. 11A. FIG. 11B, FIG. 11C, FIG. 11D, and FIG. 11E show expression of ER stress markers GRP78, Ero1, and GADD in Pkd1-1 mice treated with VX-809. (FIG. 11A & FIG. 11D) Representative Western blot images of GRP78, ErO1, and GADD in lysates of kidney tissue from no cyst induced (ND), cyst induced with doxycycline (D) or cyst induced pkd−/− mice treated with VX-809 (D+VX-809) 30 mg/kg BW. (FIG. 11B, FIG. 11C and FIG. 11E) Columns represent averages±standard errors of GRP78, Ero1, and GADD153 expression. Data were analyzed by non-parametric t-test. n=4 for each treated and control groups. Black lines between lanes represent representative experiments from the same gel but loaded in different lanes. **P<0.01, ***P<0.001;
Given that VX-809 alters an ensemble of Hsps, it was evaluated whether VX-809 alters proteins associated with ER stress. To address this question, the levels of three ER stress-associated proteins were measured, 78-kDa glucose-regulated protein (GRP78), ER oxidoreductin 1 (Ero1) and DNA damage-inducible protein 3 (GADD153), also known as C/EBP homologous protein (CHOP) (37). The results are depicted in FIG. 11 show no changes in GRP78 or Ero1 in response to VX-809.

PN (pkd1-null) cells = experiment: In vitro cystogenesis (3D Matrigel culture, cyst size by cross-sectional area); format: cell-based, mouse
Protocol: Cells were treated with DMSO (control), VX-809, or C18 (10 μM) plus or minus forskolin on Days 0, 2, 4, 6, 8, 10, 12, 14. […] Cells were treated with DMSO (control), C18 or VX-809 (10 μM) from 9-16 (7) days. All pictures were taken on Day 16. Columns represent means±SEM (n=6). The average cyst size from the control group was considered 100%, and the sizes of the rest of the cysts were compared with this average. ****P<0.0001. Cyst size was estimated from the cross-sectional area;
VX-809 Reduces Cyst Growth in Vitro Experiments were conducted using a model ADPKD cell line (PH=pkd1+/− heterozygote control; PN=pkd−/− knockout), clonally isolated from single parental clones obtained from a pkdf1/− mouse that was manufactured in an ImmortoMouse containing the H-2Kb-tsA58 gene. The null cells (PN) stably express the Cre recombinase. All the cells proximal tubule origin. To determine how VX-809 reduces cyst growth, cysts were grown in the presence of forskolin (FIG. 2). […] Taken together with the animal data provided in FIG. 1, these in vitro results clearly indicate that CFTR correctors are effective in reducing cyst growth.
In vitro cytogenesis. To induce differentiation, cells were kept at 37° C. for at least 6 days without gamma-interferon. After one week, the cells were used for 3D culture or other experiments. Growth factor-reduced Matrigel #354230 (Corning) was used, and cell dilutions were prepared so that there were approximately 6,000 cells in 25 μl of medium; 25 μl of cell preparation was mixed with 50 μl of Matrigel. Pictures were taken with a Zeiss Axio microscope. Cystic areas were analyzed with ImageJ (provided by the NIH).

Cc1ccc(NC(=O)C2(c3ccc4c(c3)OC(F)(F)O4)CC2)nc1-c1cccc(C(=O)O)c1 [VX-809, lumacaftor]
Hsp27 level over the 8-h period [1]: unchanged
Hsp90 reduction over the 8-h period [1]: approximately 25%
Hsp70 levels over the 8-h period ([1]; vs time 0): approximately half the level observed at time 0
caspase 3 activity [2]: small reduction
Ero1 level (GRP78, Ero1, and GADD153): no changes
GADD153 level (GRP78, Ero1, and GADD153): equally dramatic reduction
GRP78 level (GRP78, Ero1, and GADD153): no changes
size of established cysts (PN (pkd1-null) cells; 10 μM from Days 9-16, in the presence of forskolin): reduces the size of established cysts
cyst growth (PN (pkd1-null) cells; 10 μM on Days 0, 2, 4, 6, 8, 10, 12, 14, plus or minus forskolin): reduce cyst growth equally well; also recorded: inhibits cyst growth
cyst size (PN (pkd1-null) cells; every other day or Days 9-16, in the presence of forskolin): dramatically reducing cyst size
